Measured values from PubChem BioAssay (NCI).
“And” between values parts separate entries of the source, which are not always exact repeats. Identical values can stand only once.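 96-well plates; 48 h exposure; 5 concentrations. Endpoints by linear interpolation between flanking doses. Not reached: highest tested concentration assigned. GI50 marks 50% less growth. At the TGI there is no net growth.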

Legend:
Test in all cases: DTP human tumour cell line panel, 48 h
PC-3 prostate = system: PC-3 prostate
K-562 leukemia = system: K-562 leukemia
A498 renal = system: A498 renal
SN12C renal = system: SN12C renal
A549 NSCLC = system: A549 NSCLC
RXF 393 renal = system: RXF 393 renal
U251 CNS = system: U251 CNS
SK-OV-3 ovarian = system: SK-OV-3 ovarian
HL-60(TB) leukemia = system: HL-60(TB) leukemia
M14 melanoma = system: M14 melanoma

| Structure (SMILES) | GI50 (PC-3 prostate) [µM] | TGI (PC-3 prostate) [µM] | GI50 (K-562 leukemia) [µM] | TGI (K-562 leukemia) [µM] | GI50 (A498 renal) | TGI (A498 renal) | GI50 (SN12C renal) [µM] | TGI (SN12C renal) [µM] | GI50 (A549 NSCLC) [µM] | TGI (A549 NSCLC) [µM] | GI50 (RXF 393 renal) [µM] | TGI (RXF 393 renal) | GI50 (U251 CNS) [µM] | TGI (U251 CNS) | GI50 (SK-OV-3 ovarian) | TGI (SK-OV-3 ovarian) | GI50 (HL-60(TB) leukemia) [µM] | TGI (HL-60(TB) leukemia) | TGI (M14 melanoma) [µM] | GI50 (M14 melanoma) [µM] |
| --- | --- | --- | --- | --- | --- | --- | --- | --- | --- | --- | --- | --- | --- | --- | --- | --- | --- | --- | --- | --- |
| OC[C@H]1C[C@](O)(c2ccccc2Cl)[C@@H](c2ccccc2Cl)O1 | 24.2 | 74.6 | 20 | 56.9 | 22.9 µM | 59.2 µM | 20.8 | 41.2 | 22.9 | 58.1 | 18.7 | 37.9 µM | 28.5 | > 100 µM | 23.6 µM | 84.4 µM | 16.5 | 38.7 µM | – | – |
| O=C1OCc2nc3c(c(-c4ccccc4C(F)(F)F)c21)C(=O)OC3 | – | – | – | > 100 | – | > 100 µM | – | > 100 | – | > 100 | – | > 100 µM | – | > 100 µM | – | > 100 µM | – | > 100 µM | > 100 | – |
| O=C1c2c(c3c4ccccc4n(CC4CO4)c3c3[nH]c4ccccc4c23)C(=O)N1Cc1ccccc1 (stereo not given) | – | – | – | > 100 | – | > 100 µM | – | > 100 | – | > 100 | – | > 100 µM | – | > 100 µM | – | > 100 µM | – | > 100 µM | > 100 | – |
| Cc1[nH]c2c(C)c3c([nH]c4ccc(Cl)cc43)c(C)c2c(=O)c1C | – | 22.4 | – | > 100 | – | 51.9 µM | – | 15.1 | – | 10 | – | – | – | 23.3 µM | – | > 73.8 µM | – | 9.64 µM | > 100 | – |
| COC(=O)[C@]12CC[C@@H](C)[C@H](C)[C@@H]1C1=CC[C@@H]3[C@@]4(C)C[C@@H](OC(C)=O)[C@H](OC(C)=O)[C@@](C)(COC(C)=O)[C@@H]4[C@H](O)C[C@@]3(C)[C@]1(C)CC2 | 0.535 | > 100 | 0.356 | > 100 | 1.92 µM | 68.5 µM | – | – | 2.06 | > 100 | 6.88 | 61.4 µM | 0.86 | > 100 µM | 3.1 µM | > 100 µM | 0.59 | 11.4 µM | > 100 | 1.28 |
| NN=C1/C(=C\c2ccccc2)CCC/C1=C/c1ccccc1 | – | – | – | 44 | – | 95.8 µM | – | > 100 | – | > 100 | – | > 100 µM | – | > 100 µM | – | > 100 µM | – | 45.1 µM | > 100 | – |
| COc1ccc(/C=C\c2cc(OC)c(OC)c(OC)c2)cc1NC(=O)/C=C/c1cc(OC)c(OC)c(OC)c1 | 3.09 | > 100 | – | – | 0.949 µM | > 100 µM | 4.56 | > 100 | 3.82 | > 100 | 2.66 | 8.96 µM | 3.82 | > 100 µM | – | – | 1.95 | 8.03 µM | > 100 | 3.15 |
| COc1ccc2c(Cl)cc(NC(=S)Nc3ccccc3)nc2c1 | – | 66.4 | – | 60.2 | – | 48.1 µM | – | > 100 | – | > 100 | – | 55.6 µM | – | 36.4 µM | – | 61.1 µM | – | – | 36.6 | – |
| COc1cccc(NC(=O)/C(CS(=O)(=O)CCC(C(C)=O)C(C)=O)=N\NC(C)(C)C)c1 | – | – | – | > 100 | – | > 100 µM | – | > 100 | – | > 100 | – | > 100 µM | – | > 100 µM | – | > 100 µM | – | > 100 µM | > 100 | – |
| COC(=O)C(=O)C(C(=O)C(=O)Nc1cc(C)ccc1C)c1nc2ccccc2[nH]c1=O (stereo not given) | – | > 100 | – | > 100 | – | > 100 µM | – | > 100 | – | > 100 | – | > 100 µM | – | > 100 µM | – | > 100 µM | – | – | > 100 | – |
| O=[N+]([O-])c1ccc(N=P(c2ccccc2)(c2ccccc2)c2ccccc2)n2nnnc12 | – | – | – | > 100 | – | > 100 µM | – | > 100 | – | > 100 | – | > 100 µM | – | > 100 µM | – | 95.8 µM | – | > 100 µM | > 100 | – |
| CN1C/C(=C\c2ccccc2)C2=NN(C(N)=S)[C@H](c3ccccc3)[C@@H]2C1 | – | – | – | > 100 | – | > 100 µM | – | > 100 | – | > 100 | – | > 100 µM | – | > 100 µM | – | > 100 µM | – | 54.8 µM | > 100 | – |
| O=C1N(c2ccc(Cl)cc2)C(=O)C2(SC=NN2Cc2ccccc2)N1c1ccc(Cl)cc1 (stereo not given) | – | – | – | > 100 | – | > 100 µM | – | > 100 | – | > 100 | – | > 100 µM | – | > 100 µM | – | > 100 µM | – | > 100 µM | > 100 | – |
| COc1cc2c(c3oc4c(O)cccc4c(=O)c13)CC(C(C)(O)CCl)O2 (stereo not given) | – | 7.76 | – | – | – | 37.3 µM | – | 2.4 | – | 13.6 | – | 2.43 µM | – | 12.5 µM | – | 17.9 µM | – | – | 1.27 | – |
| C=C1C(C)C2C(Cc3ccccc3)NC(=O)C23C(OC(C)=O)C=CC(C)(O)C(=O)C(C)C/C=C/C3C1O (stereo not given) | – | – | 13.6 | > 500 | 0.202 µM and 0.05 µM | 1.47 µM and 13.9 µM | 14.9 | 499 | 0.241 | > 500 | 0.0604 | 1.55 µM and 1.04 µM | – | 5.47 µM and 53.2 µM | 0.0761 µM and 0.23 µM | 49.5 µM and 76.1 µM | 1.61 | 20.5 µM and 15.7 µM | – | 3.18 |
| O=C1c2ccc3c4c(ccc(c24)C(=O)N1CCCCO)C(=O)N(CCCCO)C3=O | 3.1 | 30.1 | 2.54 | > 100 | 1.12 µM | 2.87 µM | 1.88 | 6.63 | 1.93 | 6.65 | 2.08 | 10.7 µM | 2.14 | 6.57 µM | 4.14 µM | 17.8 µM | 2.07 | 7.43 µM | – | – |
| COc1ccc2c(c1O)[C@@]13CCCC=C1[C@@H](C2)N(C)CC3 | – | > 100 | – | > 100 | – | – | – | > 100 | – | > 100 | – | > 100 µM | – | > 100 µM | – | > 100 µM | – | > 100 µM | > 100 | – |
| CCOC(=O)Nc1cc2c(c(N)n1)N=C(c1ccc(Cl)cc1Cl)CN2 | – | 14.9 | – | 11.9 | – | 20.6 µM | – | 28.8 | – | 19.3 | – | – | – | 18 µM | – | 23.2 µM | – | 0.0585 µM | 43.4 | – |
| NP1(Oc2ccc(F)cc2)=NP(N)(Oc2ccc(F)cc2)=NP(Oc2ccc(F)cc2)(Oc2ccc(F)cc2)=N1 (stereo not given) | – | 16.4 | – | – | – | 8.71 µM | – | 18.5 | – | 14.6 | – | – | – | 15.9 µM | – | 27.2 µM | – | 22.3 µM | 19.4 | – |
